# Measurements reported in PubChem BioAssay (NCI).
#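 Briefly, cells in 96-well plates were exposed to five compound concentrations for 48 h, and endpoints were estimated by linear interpolation. Here, GI50 denotes the concentration required for 50% inhibition of growth. Definition used: TGI = concentration required for complete inhibition of growth.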
# Key:
# Assay in all cases: NCI anticancer screen, dose series, 48 h
# CAKI-1 renal = system: CAKI-1 renal
# MDA-N = system: MDA-N
# OVCAR-8 ovarian = system: OVCAR-8 ovarian
# NCI-H522 lung = system: NCI-H522 lung
# SF-295 CNS = system: SF-295 CNS
# SNB-19 CNS = system: SNB-19 CNS
# CCRF-CEM leukemia = system: CCRF-CEM leukemia
# SK-MEL-5 melanoma = system: SK-MEL-5 melanoma
# HCT-116 colon = system: HCT-116 colon
# SK-MEL-2 melanoma = system: SK-MEL-2 melanoma
# ACHN renal = system: ACHN renal
Structure (SMILES),TGI (CAKI-1 renal) [µM],TGI (MDA-N) [µM],TGI (OVCAR-8 ovarian) [µM],TGI (NCI-H522 lung) [µM],TGI (SF-295 CNS) [µM],TGI (SNB-19 CNS) [µM],TGI (CCRF-CEM leukemia) [µM],TGI (SK-MEL-5 melanoma) [µM],TGI (HCT-116 colon) [µM],TGI (SK-MEL-2 melanoma) [µM],TGI (ACHN renal) [µM],GI50 (SF-295 CNS) [µM],GI50 (SNB-19 CNS) [µM],GI50 (CCRF-CEM leukemia) [µM],GI50 (HCT-116 colon) [µM],GI50 (ACHN renal) [µM],GI50 (OVCAR-8 ovarian) [µM],GI50 (NCI-H522 lung) [µM],GI50 (SK-MEL-2 melanoma) [µM]
COc1ccc2c(O)c3[n+](cc2c1OC)CCc1cc2c(cc1-3)OCO2,> 100,> 100,> 100,46,> 100,> 100,> 100,> 100,> 100,> 100,> 100,,,,,,,,
ClCCN(CCCl)Cc1ccc(Nc2ccnc3cc(Cl)ccc23)cc1,,,,,6.98,6.73,2.99,,> 100,,> 100,2.08,1.89,0.265,1.56,0.548,,,
COc1ccc(C(=O)C2CC3(CCC2(O)c2ccc(OC)cc2)CC(=O)Nc2ccccc2C3=O)cc1 (centres undefined),> 100,> 100,> 100,,> 100,,> 100,> 100,> 100,> 100,,,,,,,,,
COC[C@H]1C(=O)NCC(=O)N2NCCC[C@H]2C(=O)N(O)[C@H](C)C(=O)O[C@@H](C(C)C)[C@H](NC(=O)[C@](C)(O)[C@]2(O)CC[C@@H](CC(C)C)[C@H](C)O2)C(=O)N2NCCC[C@@H]2C(=O)N1O,,,0.0306,0.0377,,,,,,0.0304,0.0307,,,,,0.0168,< 0.01,0.0171,0.0152
CO/C(=N\N=C(/C)C(F)(F)F)c1ccncc1,> 100,> 100,> 100,> 100,,> 100,> 100,> 100,> 100,> 100,,,,,,,,,
CCOc1ncn(-c2ccc(NC(=S)Nc3cccc(O)c3)cc2)n1,,> 100,> 100,> 100,> 100,> 100,> 100,> 100,> 100,,,,,,,,,,
